Reference: the NIST ThermoML archive (doi:10.1016/j.jct.2008.01.001)
± gives the expanded uncertainty stated by the source.

Experiments:
[1] = Liquid; for mass density: 273.15 K, 101.33 kPa; for Normal boiling temperature: Ebulliometric method (Recirculating still)
[2] = refractive index (Na D-line) (dimensionless); settings: 273.15 K; 101.33 kPa; Liquid; Standard Abbe refractometry

| SMILES | mass density [1] [kg/m3] | Normal boiling temperature [1] [°C] | refractive index [2] |
| --- | --- | --- | --- |
| CCC(=O)O [propanoic acid] | 992.7 ± 0.4 | 141.0 ± 0.02 | 1.3811 ± 0.0004 |
| CCCCC(CC)CO (stereo not given) [2-ethyl-1-hexanol] | 832.3 ± 1.2 | 185.1 ± 0.02 | – |
